Tests used:
Assay type in all cases: functional
[1] = Cytotoxicity against human NCI-ADR-RES cells assessed as cell growth level at 100 uM after 48 hrs by sulforhodamine B assay
[2] = tested on: 786-0; assay: Cytotoxicity against human 786-0 cells assessed as cell growth level at 100 uM after 48 hrs by sulforhodamine B assay
[3] = tested on: UO-31; assay: Cytotoxicity against human UO31 cells assessed as cell growth level at 100 uM after 48 hrs by sulforhodamine B assay
[4] = tested on: DU-145; assay: Cytotoxicity against human DU145 cells assessed as cell growth level at 100 uM after 48 hrs by sulforhodamine B assay
[5] = tested on: NCI-H226; assay: Cytotoxicity against human NCI-H226 cells assessed as cell growth level at 10 nM after 48 hrs by sulforhodamine B assay
[6] = tested on: HCT-116; assay: Cytotoxicity against human HCT116 cells assessed as cell growth level at 10 nM after 48 hrs by sulforhodamine B assay
[7] = tested on: SW-620; assay: Cytotoxicity against human SW620 cells assessed as cell growth level at 10 nM after 48 hrs by sulforhodamine B assay
[8] = tested on: SF-268; assay: Cytotoxicity against human SF268 cells assessed as cell growth level at 10 nM after 48 hrs by sulforhodamine B assay
[9] = tested on: U-251; assay: Cytotoxicity against human U251 cells assessed as cell growth level at 10 nM after 48 hrs by sulforhodamine B assay
[10] = tested on: M14; assay: Cytotoxicity against human M14 cells assessed as cell growth level at 10 nM after 48 hrs by sulforhodamine B assay
[11] = tested on: SK-OV-3; assay: Cytotoxicity against human SKOV3 cells assessed as cell growth level at 10 nM after 48 hrs by sulforhodamine B assay
[12] = tested on: MCF7; assay: Cytotoxicity against human MCF7 cells assessed as cell growth level at 10 nM after 48 hrs by sulforhodamine B assay
[13] = tested on: MDA-MB-231; assay: Cytotoxicity against human MDA-MB-231/ATCC cells assessed as cell growth level at 10 nM after 48 hrs by sulforhodamine B assay
[14] = tested on: COLO 205; assay: Cytotoxicity against human COLO205 cells assessed as cell growth level at 100 nM after 48 hrs by sulforhodamine B assay
[15] = tested on: SNB-75; assay: Cytotoxicity against human SNB75 cells assessed as cell growth level at 100 nM after 48 hrs by sulforhodamine B assay
[16] = tested on: U-251; assay: Cytotoxicity against human U251 cells assessed as cell growth level at 100 nM after 48 hrs by sulforhodamine B assay
[17] = tested on: M14; assay: Cytotoxicity against human M14 cells assessed as cell growth level at 100 nM after 48 hrs by sulforhodamine B assay
[18] = Cytotoxicity against human NCI-ADR-RES cells assessed as cell growth level at 100 nM after 48 hrs by sulforhodamine B assay
[19] = tested on: NCI-H322M; assay: Cytotoxicity against human NCI-H322M cells assessed as cell growth level at 10 uM after 48 hrs by sulforhodamine B assay
[20] = tested on: HT-29; assay: Cytotoxicity against human HT-29 cells assessed as cell growth level at 10 uM after 48 hrs by sulforhodamine B assay
[21] = tested on: SF-295; assay: Cytotoxicity against human SF295 cells assessed as cell growth level at 10 uM after 48 hrs by sulforhodamine B assay
[22] = tested on: SF-539; assay: Cytotoxicity against human SF539 cells assessed as cell growth level at 10 uM after 48 hrs by sulforhodamine B assay
[23] = tested on: UACC-257; assay: Cytotoxicity against human UACC257 cells assessed as cell growth level at 10 uM after 48 hrs by sulforhodamine B assay
[24] = tested on: MCF7; assay: Cytotoxicity against human MCF7 cells assessed as cell growth level at 10 uM after 48 hrs by sulforhodamine B assay
[25] = tested on: SNB-19; assay: Cytotoxicity against human SNB19 cells assessed as cell growth level at 1 uM after 48 hrs by sulforhodamine B assay
[26] = tested on: UO-31; assay: Cytotoxicity against human UO31 cells assessed as cell growth level at 1 uM after 48 hrs by sulforhodamine B assay
[27] = tested on: PC-3; assay: Cytotoxicity against human PC3 cells assessed as cell growth level at 1 uM after 48 hrs by sulforhodamine B assay
[28] = tested on: CCRF-CEM; assay: Cytotoxicity against human CCRF-CEM cells after 48 hrs by sulforhodamine B assay
[29] = tested on: NCI-H23; assay: Cytotoxicity against human NCI-H23 cells after 48 hrs by sulforhodamine B assay; conditions: NCI-H23, 48 h
[30] = tested on: SW-620; assay: Cytotoxicity against human SW620 cells after 48 hrs by sulforhodamine B assay; conditions: SW-620, 48 h
[31] = tested on: HCC 2998; assay: Cytotoxicity against human HCC2998 cells assessed as cell growth level at 100 uM after 48 hrs by sulforhodamine B assay
[32] = tested on: SK-MEL-28; assay: Cytotoxicity against human SK-MEL-28 cells after 48 hrs by sulforhodamine B assay; conditions: SK-MEL-28, 48 h
[33] = tested on: OVCAR-5; assay: Cytotoxicity against human OVCAR5 cells after 48 hrs by sulforhodamine B assay; conditions: OVCAR-5, 48 h
[34] = tested on: PC-3; assay: Cytotoxicity against human PC3 cells after 48 hrs by sulforhodamine B assay; conditions: PC-3, 48 h
[35] = tested on: MCF7; assay: Cytotoxicity against human MCF7 cells after 48 hrs by sulforhodamine B assay; conditions: MCF7, 48 h
[36] = tested on: MDA-MB-231; assay: Cytotoxicity against human MDA-MB-231/ATCC cells after 48 hrs by sulforhodamine B assay; conditions: MDA-MB-231, 48 h
[37] = tested on: CCRF-CEM; assay: Cytotoxicity against human CCRF-CEM cells assessed as cell growth level at 10 nM after 48 hrs by sulforhodamine B assay
[38] = read-out: LC50 (the source's name)
[39] = read-out: pLC50 (the source's name) (converted)

## O=c1oc2ccccc2cc1-c1csc(N/N=C/c2c[nH]c3ccccc23)n1
[1]
  Activity: 8%
[2]
  Activity: -27%
[3]
  Activity: -52%
[4]
  Activity: -2%
[5]
  Activity: 98%
[6]
  Activity: 92%
[7]
  Activity: 98%
[8]
  Activity: 96%
[9]
  Activity: 100%
[10]
  Activity: 97%
[11]
  Activity: 94%
[12]
  Activity: 98%
[13]
  Activity: 97%
[14]
  Activity: 115%
[15]
  Activity: 90%
[16]
  Activity: 108%
[17]
  Activity: 92%
[18]
  Activity: 110%
[19]
  Activity: 15.29%
[20]
  Activity: 32.14%
[21]
  Activity: -25.04%
[22]
  Activity: 0.41%
[23]
  Activity: 8.34%
[24]
  Activity: 8.91%
[25]
  Activity: 73%
[26]
  Activity: 46%
[27]
  Activity: 84%
[28]; read-out: GI50
  GI50: 0.33 µM
[28]; read-out: LC50
  LC50: > 100 µM
[28]; read-out: TGI
  TGI: 1.78 µM
[28]; read-out: pGI50 (converted)
  GI50: 0.339 µM
[28]; read-out: pLC50 (converted)
  LC50: > 100 µM
[28]; read-out: pTGI (converted)
  TGI: 1.78 µM
[29]; read-out: GI50
  GI50: 2.44 µM
[29]; read-out: LC50
  LC50: > 100 µM
[29]; read-out: TGI
  TGI: 5.82 µM
[29]; read-out: pGI50 (converted)
  GI50: 2.45 µM
[29]; read-out: pLC50 (converted)
  LC50: > 100 µM
[29]; read-out: pTGI (converted)
  TGI: 5.75 µM
[30]; read-out: GI50
  GI50: 2.19 µM
[30]; [38]
  CC50: 70.9 µM
[30]; read-out: TGI
  TGI: 5.24 µM
[30]; read-out: pGI50 (converted)
  GI50: 2.19 µM
[30]; [39]
  CC50: 70.8 µM
[30]; read-out: pTGI
  TGI: 5.25 µM
[31]
  Activity: -92%
[32]; read-out: GI50
  GI50: 3.96 µM
[32]; [38]
  CC50: > 100 µM
[32]; read-out: TGI
  TGI: 96.9 µM
[32]; read-out: pGI50 (converted)
  GI50: 3.98 µM
[32]; [39]
  CC50: > 100 µM
[32]; read-out: pTGI (converted)
  TGI: 97.7 µM
[33]; read-out: GI50
  GI50: 2.34 µM
[33]; [38]
  CC50: > 100 µM
[33]; read-out: TGI
  TGI: 7.8 µM
[33]; read-out: pGI50 (converted)
  GI50: 2.34 µM
[33]; [39]
  CC50: > 100 µM
[33]; read-out: pTGI (converted)
  TGI: 7.76 µM
[34]; read-out: GI50
  GI50: 0.828 µM
[34]; [38]
  CC50: 7.63 µM
[34]; read-out: TGI
  TGI: 2.66 µM
[34]; read-out: pGI50 (converted)
  GI50: 0.832 µM
[34]; [39]
  CC50: 7.59 µM
[34]; read-out: pTGI (converted)
  TGI: 2.63 µM
[35]; read-out: GI50
  GI50: 2.4 µM
[35]; [38]
  CC50: > 100 µM
[35]; read-out: TGI
  TGI: 15.5 µM
[35]; read-out: pGI50 (converted)
  GI50: 2.4 µM
[35]; [39]
  CC50: > 100 µM
[35]; read-out: pTGI (converted)
  TGI: 15.5 µM
[36]; read-out: GI50
  GI50: 1.39 µM
[36]; [38]
  CC50: 7.94 µM
[36]; read-out: TGI
  TGI: 3.33 µM
[36]; read-out: pGI50 (converted)
  GI50: 1.38 µM
[36]; [39]
  CC50: 7.94 µM
[36]; read-out: pTGI (converted)
  TGI: 3.31 µM
[37]
  Activity: 100%

Reference: ChEMBL document CHEMBL3580659, “One-pot multicomponent synthesis of indole incorporated thiazolylcoumarins and their antibacterial, anticancer and DNA cleavage studies” (2015)
